Source: patent US7470815B1, “Selective neuronal nitric oxide synthase inhibitors” (Northwestern University, priority 2006, dated 2008)
Non-standard residues stand in square brackets, D forms with d. Residues, ends and D or L forms follow the SMILES beside them. dArg(NO2) = N=C(NCCC[C@@H](N)C(=O)O)N[N+](=O)[O-]

Columns and labels:
recombinant rat nNOS [1] = target: T1, recombinant rat nNOS (Rattus norvegicus, UniProt P29476); assay: NOS hemoglobin capture assay, inhibition of nNOS; format: biochemical; settings: Dixon analysis and method of Cornish and Bowden
T1 construct: made in house; host or cells: E. coli

recombinant rat nNOS [2] = target: T1, recombinant rat nNOS; settings: prior art compound; cited from earlier work

SMILES | type of inhibition of nNOS (recombinant rat nNOS [1]) | selectivity for nNOS over iNOS (recombinant rat nNOS [2]) [fold]
N=C(NCCC[C@H](N)CNc1ccccc1CCN)N[N+](=O)[O-] [Compound 26, N-(4S)-{4-Amino-5-[2-(2-aminoethyl)phenylamino]-pentyl}-N′-nitroguanidine] | competitive inhibition | –
COC(=O)[C@@H](CCCN=C(N)N[N+](=O)[O-])NC(=O)[C@H](N)Cc1ccccc1 [D-Phe-D-Arg^NO2-OMe] (H-[dF]-[dArg(NO2)]-OMe) | – | 1800
